Where no end group is shown, it is not given here.
Legend:
[1] = Protein-lipid overlay assay, PIP strip; format: binding; details: 1 μg/mL protein, immunodetection, densitometry
Procedure: Protein-lipid overlay assays using Membrane strip™ or PIP strip™ (Echelon Biosciences, Salt Lake City, UT) were performed using 1 μg/mL proteins as described previously. Lipid binding was immunodetected using a combination of rabbit anti-HBD-3 IgG (50 μg/mL) and horseradish peroxidase-conjugated donkey-anti-rabbit Ig (10 μg/mL) antibodies. Chemiluminescence signal intensity was quantitated by densitometry analysis using ImageJ (National Institutes of Health, Bethesda, MD; http://imagej.nih.gov/ij/).

[2] = tested on: primary cell type (HUVEC, AHDF, CASMC); test: Flow cytometry-based PI uptake assay, primary cell types; design: species or system human; details: 50 μM HBD-3 (highest dose tested), each primary cell type, 37°C, 30 min
Procedure: Cells suspended at 1×10^6 cells/mL in serum-free medium containing 0.1% (w/v) bovine serum albumin (BSA) (Sigma-Aldrich) were treated with HBD-3 at 37°C for 30 min. Nucleic acid stain propidium iodide (PI) was then added to a final concentration of 1 μg/mL and cells subjected to flow cytometry analysis using BD FACSCanto II Flow Cytometer and BD FACSDiva Software v6.1.1 (BD Biosciences, San Jose, CA). For each flow cytometry reading, 10,000 cells, gated appropriately based on forward scattering and side scattering, were recorded. The resultant data were processed using FlowJo software (Tree Star, San Carlos, CA) to determine PI-positivity, which reflects the level of membrane permeabilisation. For lipid inhibition assays, 15 μM HBD-3 was pre-incubated with 50 μM synthetic lipids, including L-α-phosphatidic acid (PA), L-α-phosphatidylcholine (PC), L-α-phosphatidylethanolamine (PE), L-α-phosphatidylserine (PS), L-α-phosphatidylinositol-4-phosphate (PI(4)P), L-α-phosphatidylinositol-3,5-bisphosphate (PI(3,5)P2), L-α-phosphatidylinositol-4,5-bisphosphate (PI(4,5)P2) and L-α-phosphatidylinositol-3,4,5-trisphosphate (PI(3,4,5)P)3. All lipids were sourced from Avanti Polar Lipids, Alabaster, AL. […]

[3] = tested on: U937 cells; test: ATP bioluminescence release assay, U937; format: cell-based, human; details: HBD-3 titrations, bioluminescence for 30 min, PBS with 0.1% BSA, concentration-dependent
Procedure: ATP release assay was conducted using an ATP bioluminescence assay kit (Roche Diagnostics, Mannheim, Germany). U937 and HeLa cells were suspended at 1×10^6 cells/mL in PBS containing 0.1% (w/v) BSA, and mixed with luciferase/luciferin reagent at a ratio of 4:5. The mixture was added to HBD-3 samples and the level of ATP release measured immediately as bioluminescence emission signal intensity for 30 min with 30 s intervals.

[4] = tested on: U937 and HeLa cells; test: Confocal laser scanning microscopy of membrane blebbing; format: cell-based, human; details: 15 μM HBD-3, 15 min after addition, PKH67 and PI staining
Procedure: Live imaging was performed on a Zeiss LSM-780 confocal microscope using a 63× oil immersion objective in a 37°C incubator with 5% CO2. Adherent HeLa cells were cultured overnight on coverslips while suspension U937 cells were immobilised onto 0.01% (w/v) poly-L-lysine-coated coverslips. Both cell types were prepared in serum-free RPMI 1640 medium containing 0.1% (w/v) BSA and 2 μg/mL PI. HBD-3 or BODIPY FL EDA-labeled HBD-3 was added directly to the imaging chamber to final concentration of 15 μM, via a capillary tube. In certain experiments, prior to imaging, cells were pre-stained with the membrane dye PKH67 as per manufacturer's instructions (Sigma-Aldrich) or transfected with expression vectors carrying GFP only or GFP-tagged Pleckstrin homology domain of phospholipase C-delta 1 (GFP-PH(PLCδ1)) (kindly provided by Christina Mitchell, Monash University, Australia), using Lipofectamine 3000 reagent (Invitrogen) as per manufacturer's instructions. For CLSM involving transfections, images were taken as 4×4 tiles over 30 min, and the resultant data for GFP and GFP-PH transfected cells were analysed by counting PI-positive cells.

[5] = Transmission electron microscopy of fibril formation with PI(4,5)P2; details: in vitro, data not shown

Substance: human β-defensin 3 (GIINTLQKYYCRVRGGRCAVLSCLPKEEQIGKCSTRGRKCCRRKK; not fully specified; cysteine pairing not given here; UniProt P81534 23-67, looked up) [HBD-3, human β-defensin 3, cationic antimicrobial peptide, recombinantly expressed in P. pastoris]
- binding to phosphoinositides/lipids on PIP strip [1]: most strongly, PA and all phosphoinositides
- cells permeabilised (PI-positive) [2]: less than 20%
- cytoplasmic ATP release [3]: rapidly released
- size of membrane blebs formed in PI-positive cells [4]: > 10 μm
- oligomerisation to fibrils on binding PI(4,5)P2 [5]: not observed

Reference: article PMC4811302, “Human β-defensin 3 contains an oncolytic motif that binds PI(4,5)P2 to mediate tumour cell permeabilisation” (Oncotarget, 2015)
